# Experimental data: patent US10179816B2, “Pharmaceutical compositions comprising an antibody which binds the human anti-Müllerian hormone receptor type II” (LABORATOIRE FRANCAIS DU FRACTIONNEMENT DES BIOTECHNOLOGIES, priority 2011, dated 2019)
# Where “and” joins values, the source holds several entries; their conditions need not be identical. Identical values can stand only once. Entries after “also recorded” stand apart in the source; their conditions may differ. Like-named read-outs stand apart in the source and are kept apart here.
# Columns and labels:
# [1] = test system: Cov434-AMHRII Asc1a5 tumour cells (a cell line of human ovarian cancer); experiment: Anti-tumour activity of 3C23K alone or with paclitaxel in Cov434-AMHRII Asc1a5 xenograft (tumour volume, T/C ratio, statistical analysis); conditions: for Individual tumour volume: individual mice;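 as to all read-outs here: subcutaneous Cov434-AMHRII Asc1a5 xenografts in female Swiss nude mice, tumour volume from length×width×height/2 in mm^3, randomized D13, dosing from D14, 8 mice per group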
# Description: Female Swiss nude mice (Harlan Laboratories) were injected subcutaneously (s.c.) with 7.10^6 cells of Cov434-AMHRII Asc1a5 (cell line of human ovarian cancer transfected with cDNA AMHRII) in Matrigel (1:1 ratio) under a volume of 150 μL on day 0 (D0).
# The mice were randomized on D13, when the volume of the tumours was between 58 and 150 mm^3, and the treatments began on D14 (8 mice per group).
# The tumours were usually measured twice weekly. Tumour volume (TV) was calculated using the following formula, in which the length corresponds to the largest of the tumour diameters, the width corresponds to the smallest of the tumour diameters and the tumour height: TV (mm^3)=(length×width×height)/2.
# In addition, for each group, curves of tumour growth were plotted using the calculated mean tumour volumes or the median tumour volumes.
# (§1) The animals were sacrificed when the tumour volumes reached 2000 mm^3 or for ethical reasons. The curves of mean values and median values as well as the statistical analyses were stopped when 20% of the mice in the group were dead.
# In one experiment with 8 mice per group, the curves and analyses were stopped when fewer than 7 values per group had been obtained (7 mice alive).
# The statistical differences between the different groups were analysed by ANOVA comparison using the Statgraphics centurion XV software.
# The ANOVA table breaks down the variance into two components: an inter-group component and an intra-group component. The ratio F is the ratio of the inter-group estimate to the intra-group estimate. When the P value of test F is greater than or equal to 0.05, there is no statistically significant difference between the mean values of the two groups, with a confidence level of 95%. P values less than 0.05 indicate a significant difference between the mean values of the two groups with a confidence level of 95%.
# A Kruskal-Wallis test was also carried out. When the P value is greater than or equal to 0.05, there is no statistically significant difference between the median of the two groups, with a confidence level of 95%. P values less than 0.05 indicate a significant difference between the medians of the two groups with a confidence level of 95%.
# The treatment is initiated on day 14 after injection.
# [2] = test system: Cov434-AMHRII Asc1a5 tumour cells;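 also: control mice received NaCl solution, survival endpoint was euthanasia once tumour volume hit 2000 mm^3 or on ethical grounds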
# Excerpt: A solution of NaCl was used as the control.
# as §1
# [3] = target: T1, human anti-Müllerian hormone type II receptor (AMHR-II) (Homo sapiens, UniProt Q16671); conditions: compared with unmutated humanized and chimeric 12G4; cited from earlier work
# T1 sequence (Q16671 18-573): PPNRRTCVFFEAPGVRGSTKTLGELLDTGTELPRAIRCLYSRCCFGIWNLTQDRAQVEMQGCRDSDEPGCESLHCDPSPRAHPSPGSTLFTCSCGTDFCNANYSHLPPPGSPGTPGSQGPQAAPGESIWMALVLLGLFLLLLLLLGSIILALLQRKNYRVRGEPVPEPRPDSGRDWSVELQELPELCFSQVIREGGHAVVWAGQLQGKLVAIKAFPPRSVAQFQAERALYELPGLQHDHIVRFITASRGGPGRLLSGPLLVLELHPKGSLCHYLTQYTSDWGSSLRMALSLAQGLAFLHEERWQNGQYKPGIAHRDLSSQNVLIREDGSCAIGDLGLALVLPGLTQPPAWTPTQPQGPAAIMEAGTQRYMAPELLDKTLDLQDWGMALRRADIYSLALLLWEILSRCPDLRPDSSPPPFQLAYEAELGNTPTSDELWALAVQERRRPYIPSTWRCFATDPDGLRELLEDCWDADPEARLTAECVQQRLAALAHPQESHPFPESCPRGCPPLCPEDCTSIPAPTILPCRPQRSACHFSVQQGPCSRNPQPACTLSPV
# [4] = D13, contrast vs paclitaxel 15 mg/kg q7d4
# [5] = D20, contrast vs paclitaxel 15 mg/kg q7d4
# [6] = D24, contrast vs paclitaxel 15 mg/kg q7d4
# [7] = D27, contrast vs paclitaxel 15 mg/kg q7d4
# [8] = D31, contrast vs paclitaxel 15 mg/kg q7d4
# [9] = D35, contrast vs paclitaxel 15 mg/kg q7d4
# [10] = D41, contrast vs paclitaxel 15 mg/kg q7d4
# [11] = Day 13, randomization, before treatment
substance,measurement,setting,value
"3C23K: mutated humanized 12G4 monoclonal antibody binding AMHR-II, produced by the 3C23K clone; light chain SEQ ID NO: 11, heavy chain SEQ ID NO: 13",ANOVA F-ratio,"[1]; D13, contrast vs control",0.00
same,Kruskal-Wallis Test,"[1]; D13, contrast vs control",0.00
same,ANOVA F-ratio,[1]; [4],0.11
same,Kruskal-Wallis Test,[1]; [4],0.03
same,ANOVA F-ratio,"[1]; D20, contrast vs control",5.33
same,Kruskal-Wallis Test,"[1]; D20, contrast vs control",4.44
same,ANOVA F-ratio,[1]; [5],9.54
same,Kruskal-Wallis Test,[1]; [5],6.39
same,Statistical analysis of tumour volume (in words),[1]; D20 to D41,significant anti-tumour activity; also recorded: significantly different from that of paclitaxel in monotherapy
same,ANOVA F-ratio,"[1]; D24, contrast vs control",9.83
same,Kruskal-Wallis Test,"[1]; D24, contrast vs control",4.41
same,ANOVA F-ratio,[1]; [6],8.53
same,Kruskal-Wallis Test,[1]; [6],8.70
same,ANOVA F-ratio,"[1]; D27, contrast vs control",8.21
same,Kruskal-Wallis Test,"[1]; D27, contrast vs control",4.87
same,ANOVA F-ratio,[1]; [7],8.92
same,Kruskal-Wallis Test,[1]; [7],8.66
same,ANOVA F-ratio,"[1]; D31, contrast vs control",10.00
same,Kruskal-Wallis Test,"[1]; D31, contrast vs control",4.86
same,ANOVA F-ratio,[1]; [8],8.01
same,Kruskal-Wallis Test,[1]; [8],8.66
same,ANOVA F-ratio,"[1]; D35, contrast vs control",8.26
same,Kruskal-Wallis Test,"[1]; D35, contrast vs control",5.11
same,ANOVA F-ratio,[1]; [9],10.47
same,Kruskal-Wallis Test,[1]; [9],8.65
same,ANOVA F-ratio,"[1]; D41, contrast vs control",11.82
same,Kruskal-Wallis Test,"[1]; D41, contrast vs control",5.36
same,ANOVA F-ratio,[1]; [10],12.64
same,Kruskal-Wallis Test,[1]; [10],7.71
same,Mean tumour volume,[1]; [11],92 mm^3
same,Median tumour volume,[1]; [11],89 mm^3
same,Individual tumour volume,[1]; Day 13,144 mm3 and 98 mm3 (2×) and 90 mm3 and 76 mm3 and 73 mm3
same,Mean tumour volume,[1]; Day 20,111 mm^3
same,Median tumour volume,[1]; Day 20,107 mm^3
same,Individual tumour volume,[1]; Day 20,105 mm3 and 135 mm3 and 88 mm3 and 140 mm3 and 150 mm3 and 60 mm3
same,Mean tumour volume,[1]; Day 24,97 mm^3
same,Median tumour volume,[1]; Day 24,93 mm^3
same,Individual tumour volume,[1]; Day 24,158 mm3 and 180 mm3 and 0 mm3 and 102 mm3 and 114 mm3 and 68 mm3
same,Mean tumour volume,[1]; Day 27,144 mm^3
same,Median tumour volume,[1]; Day 27,129 mm^3
same,Individual tumour volume,[1]; Day 27,252 mm3 and 289 mm3 and 0 mm3 and 192 mm3 and 168 mm3 and 72 mm3
same,Mean tumour volume,[1]; Day 31,153 mm^3
same,Median tumour volume,[1]; Day 31,162 mm^3
same,Individual tumour volume,[1]; Day 31,184 mm3 and 404 mm3 and 0 mm3 and 204 mm3 and 198 mm3 and 68 mm3
same,Mean tumour volume,[1]; Day 35,310 mm^3
same,Median tumour volume,[1]; Day 35,317 mm^3
same,Individual tumour volume,[1]; Day 35,366 mm3 and 592 mm3 and 0 mm3 and 488 mm3 and 528 mm3 and 122 mm3
same,Mean tumour volume,[1]; Day 41,429 mm^3
same,Median tumour volume,[1]; Day 41,467 mm^3
same,Individual tumour volume,[1]; Day 41,560 mm3 and 844 mm3 and 0 mm3 and 540 mm3 and 634 mm3 and 293 mm3
same,Mean tumour volume,[1]; Day 45,577 mm^3
same,Median tumour volume,[1]; Day 45,577 mm^3
same,Individual tumour volume,[1]; Day 45,918 mm3 and 1256 mm3 and 0 mm3 and 624 mm3 and 731 mm3 and 392 mm3
same,Mean tumour volume,[1]; Day 48,664 mm^3
same,Median tumour volume,[1]; Day 48,620 mm^3
same,Individual tumour volume,[1]; Day 48,912 mm3 and 1672 mm3 and 0 mm3 and 551 mm3 and 833 mm3 and 381 mm3 and 689 mm3
same,Mean tumour volume,[1]; Day 51,832 mm^3
same,Median tumour volume,[1]; Day 51,712 mm^3
same,Individual tumour volume,[1]; Day 51,1485 mm3 and 2035 mm3 and 0 mm3 and 587 mm3 and 900 mm3 and 462 mm3 and 837 mm3
same,Individual tumour volume,[1]; Day 55,2080 mm3 and 0 mm3 and 990 mm3 and 1084 mm3 and 600 mm3 and 1309 mm3
same,Individual tumour volume,[1]; Day 58,0 mm3 and 1482 mm3 and 1350 mm3 and 842 mm3 and 1665 mm3
same,Individual tumour volume,[1]; Day 62,0 mm3 and 1080 mm3 and 1440 mm3 and 640 mm3 and 2057 mm3
same,Individual tumour volume,[1]; Day 66,0 mm3 and 1695 mm3 and 1512 mm3 and 666 mm3
same,Individual tumour volume,[1]; Day 69,0 mm3 and 1788 mm3 and 1496 mm3 and 950 mm3
same,Individual tumour volume,[1]; Day 73,0 mm3 and 1820 mm3 and 1559 mm3 and 1018 mm3
same,Individual tumour volume,[1]; Day 76,0 mm3 and 2296 mm3 and 1238 mm3 and 1140 mm3
same,Individual tumour volume,[1]; Day 80,0 mm3 and 1520 mm3 and 1254 mm3
same,Individual tumour volume,[1]; Day 83,0 mm3 and 1615 mm3 and 1463 mm3
same,Anti-tumour activity (in words),[1]; paclitaxel study,significant anti-tumour activity; also recorded: anti-tumour effect greater than that of paclitaxel
same,T/C ratio,"[1]; relative to control group, Day 13 (before treatment)",95%
same,T/C ratio,"[1]; relative to control group, Day 20",57%
same,T/C ratio,"[1]; relative to control group, Day 24",28%
same,T/C ratio,"[1]; relative to control group, Day 27",25%
same,T/C ratio,"[1]; relative to control group, Day 31",21%
same,T/C ratio,"[1]; relative to control group, Day 35",27%
same,T/C ratio,"[1]; relative to control group, Day 41",29%
same,T/C ratio,"[1]; relative to control, after D20 up to D41 (b191 prints D40)",less than 29%
same,T/C ratio,"[1]; relative to paclitaxel group, Day 13 (before treatment)",98%
same,T/C ratio,"[1]; relative to paclitaxel group, Day 20",47%
same,T/C ratio,"[1]; relative to paclitaxel group, Day 24",35%
same,T/C ratio,"[1]; relative to paclitaxel group, Day 27",38%
same,T/C ratio,"[1]; relative to paclitaxel group, Day 31",39%
same,T/C ratio,"[1]; relative to paclitaxel group, Day 35",32%
same,Survival parameter: logrank test chi-squared,[2]; contrast vs control,11.15
same,Survival parameter: logrank test chi-squared,[2]; contrast vs paclitaxel 15 mg/kg q7d4,12.36
same,Survival parameter Mean,[2]; group of 8 mice,70 days
same,Survival parameter Median,[2]; group of 8 mice,73 days
same,Observations: End of experiment TV,[2]; individual mice alive at day 83,1615 mm3 and 1463 mm3
same,Observations,"[2]; individual mice alive at day 83, end of experiment",End of experiment no
same,survival parameter,"[2]; individual mice, experiment ended on day 83",51 Days and 55 Days and 62 Days and 69 Days and 76 Days and 83 Days (3×)
same,Statistical analysis based on the survival parameter (in words),"[2]; mouse, in vivo",significant anti-tumour activity; also recorded: significantly different from that of paclitaxel in monotherapy
same,Affinity for AMHR-II (in words),[3],affinity far better than that of the unmutated humanized 12G4 antibody
